{"source": "ChEMBL document CHEMBL6120968", "about": "“Discovery of Thiadiazoleamide Derivatives as Potent, Selective, and Orally Available Antagonists Disrupting Androgen Receptor Homodimer” (J Med Chem, 2024)", "key": {"[1]": {"assay": "Observed apparent oral clearance in rat at 20 mg/kg, iv by LC-MS/MS analysis", "assay_type": "ADME, organism-based", "conditions": "in vivo"}, "[2]": {"assay": "Observed apparent volume of distribution during terminal phase in rat at 20 mg/kg, po by LC-MS/MS analysis", "assay_type": "ADME, organism-based", "conditions": "in vivo, read-out: Vz/F_obs"}, "[3]": {"assay": "Acute toxicity in male CB17.SCID mouse implanted with human LNCaP cells assessed as body weight loss at 1250 mg/kg, po measured within 14 days", "assay_type": "organism-based", "conditions": "in vivo, 336 h, time 14 day"}, "[4]": {"assay": "Cmax in rat at 20 mg/kg, po by LC-MS/MS analysis", "assay_type": "ADME, organism-based", "conditions": "in vivo"}, "[5]": {"assay": "Microsomal stability in monkey liver microsome assessed as parent compound remaining at 60 mins in presence of NADPH and UDPGA by HPLC-MS/MS analysis", "assay_type": "ADME, Macaca mulatta", "conditions": "rhesus monkey, liver microsomes, read-out: Stability"}, "[6]": {"assay": "Half life in rat at 20 mg/kg, iv by LC-MS/MS analysis", "assay_type": "ADME, organism-based", "conditions": "in vivo"}, "[7]": {"assay": "MRTlast in rat at 20 mg/kg, iv by LC-MS/MS analysis", "assay_type": "ADME, organism-based", "conditions": "in vivo"}, "[8]": {"molecular_target": "T1, Progesterone receptor (Homo sapiens, UniProt P06401)", "T1 sequence (P06401 whole entry)": "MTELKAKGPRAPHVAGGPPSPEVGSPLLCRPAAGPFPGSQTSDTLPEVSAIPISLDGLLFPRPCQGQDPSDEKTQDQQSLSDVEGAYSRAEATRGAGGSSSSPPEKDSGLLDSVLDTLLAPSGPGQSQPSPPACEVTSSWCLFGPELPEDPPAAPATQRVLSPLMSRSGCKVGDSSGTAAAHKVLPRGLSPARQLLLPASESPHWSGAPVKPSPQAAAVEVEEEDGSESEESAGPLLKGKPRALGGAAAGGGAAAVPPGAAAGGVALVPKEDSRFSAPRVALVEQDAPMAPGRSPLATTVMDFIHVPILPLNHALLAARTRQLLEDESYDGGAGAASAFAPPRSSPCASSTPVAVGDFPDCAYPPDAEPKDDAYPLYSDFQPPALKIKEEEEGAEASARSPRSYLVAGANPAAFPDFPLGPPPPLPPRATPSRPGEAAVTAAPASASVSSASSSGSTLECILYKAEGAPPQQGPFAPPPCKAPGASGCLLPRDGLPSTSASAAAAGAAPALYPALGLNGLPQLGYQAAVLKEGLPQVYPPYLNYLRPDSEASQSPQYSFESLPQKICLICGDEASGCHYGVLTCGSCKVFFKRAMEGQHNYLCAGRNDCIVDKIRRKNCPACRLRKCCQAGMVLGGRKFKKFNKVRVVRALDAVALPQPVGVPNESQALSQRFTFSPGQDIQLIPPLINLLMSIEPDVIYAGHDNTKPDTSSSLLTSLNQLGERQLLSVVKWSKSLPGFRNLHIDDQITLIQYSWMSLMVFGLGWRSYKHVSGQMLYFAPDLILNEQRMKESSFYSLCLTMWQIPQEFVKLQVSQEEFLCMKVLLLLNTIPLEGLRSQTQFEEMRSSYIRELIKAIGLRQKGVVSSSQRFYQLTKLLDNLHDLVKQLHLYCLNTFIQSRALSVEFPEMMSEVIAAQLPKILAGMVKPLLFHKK", "assay": "Agonist activity at progesterone receptor (unknown origin)"}, "[9]": {"molecular_target": "T2, Androgen receptor (Homo sapiens, UniProt P10275)", "T2 sequence (P10275 whole entry)": "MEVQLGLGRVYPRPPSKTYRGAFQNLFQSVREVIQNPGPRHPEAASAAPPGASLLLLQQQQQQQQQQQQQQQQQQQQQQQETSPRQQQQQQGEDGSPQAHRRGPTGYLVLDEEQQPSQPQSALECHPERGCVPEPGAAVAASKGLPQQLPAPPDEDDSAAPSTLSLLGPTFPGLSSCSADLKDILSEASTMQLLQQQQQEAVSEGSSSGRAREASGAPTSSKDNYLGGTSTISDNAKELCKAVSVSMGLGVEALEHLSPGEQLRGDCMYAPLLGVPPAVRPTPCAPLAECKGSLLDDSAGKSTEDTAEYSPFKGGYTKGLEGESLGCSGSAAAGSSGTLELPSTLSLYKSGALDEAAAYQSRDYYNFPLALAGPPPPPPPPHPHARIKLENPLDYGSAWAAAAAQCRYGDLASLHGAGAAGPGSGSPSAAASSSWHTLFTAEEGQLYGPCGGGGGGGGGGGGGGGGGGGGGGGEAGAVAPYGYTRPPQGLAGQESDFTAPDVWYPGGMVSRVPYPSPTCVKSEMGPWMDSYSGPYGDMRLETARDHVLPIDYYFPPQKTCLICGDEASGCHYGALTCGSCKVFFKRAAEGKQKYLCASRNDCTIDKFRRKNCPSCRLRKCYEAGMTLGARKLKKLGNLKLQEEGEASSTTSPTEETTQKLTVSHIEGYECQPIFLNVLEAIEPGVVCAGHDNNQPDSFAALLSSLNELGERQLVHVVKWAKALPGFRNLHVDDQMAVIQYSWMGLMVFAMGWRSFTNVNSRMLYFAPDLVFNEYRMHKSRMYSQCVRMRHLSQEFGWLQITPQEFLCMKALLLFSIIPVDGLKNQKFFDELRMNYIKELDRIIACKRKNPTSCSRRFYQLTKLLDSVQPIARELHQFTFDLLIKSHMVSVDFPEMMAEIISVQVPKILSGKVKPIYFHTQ", "assay": "Antagonist activity at Androgen receptor in human LNCaP cells transfected with ARR2PB-eGFP incubated for 3 days by synergy H1 microplate reader analysis", "assay_type": "cell-based"}, "[10]": {"assay": "Microsomal stability in monkey liver microsome assessed as half life measured upto 60 mins in presence of NADPH and UDPGA by HPLC-MS/MS analysis", "assay_type": "ADME, Macaca mulatta", "conditions": "rhesus monkey, liver microsomes"}, "[11]": {"assay": "Oral bioavailability in rat at 20 mg/kg by LC-MS/MS analysis", "assay_type": "ADME, organism-based", "conditions": "in vivo"}, "[12]": {"assay": "AUC (0 to t) in rat at 20 mg/kg, po by LC-MS/MS analysis", "assay_type": "ADME, organism-based", "conditions": "in vivo"}, "[13]": {"assay": "Antiproliferative activity against human WPMY-1 cells assessed as reduction in cell viability upto 2 uM incubated for 3 days by MTT assay", "assay_type": "toxicity, cell-based", "conditions": "wpmy-1, 72 h, time 3 day"}, "[14]": {"assay": "Microsomal stability in mouse liver microsome assessed as half life measured upto 60 mins in presence of NADPH and UDPGA by HPLC-MS/MS analysis", "assay_type": "ADME", "conditions": "liver microsomes"}}, "data": [{"compound": "Cc1oc(-c2cccc(C(F)(F)F)c2)cc1C(=O)Nc1nc(CN2CCOCC2)ns1", "values": [{"measurement": "CL/F", "setting": "[1]", "value": 10.2, "unit": "mL/min/kg"}, {"measurement": "Vd/F", "setting": "[2]", "value": 11.1, "unit": "L/kg"}, {"measurement": "Activity", "setting": "[3]", "value": "Non-toxic"}, {"measurement": "Cmax", "setting": "[4]", "value": 1880, "unit": "ng/mL"}, {"measurement": "remaining at 1 h", "setting": "[5]", "value": 55.1, "unit": "%"}, {"measurement": "half-life", "setting": "[6]", "value": 7.84, "unit": "h"}, {"measurement": "MRT last", "setting": "[7]", "value": 6, "unit": "h"}, {"measurement": "IC50", "setting": "[8]", "value": "> 10000", "unit": "nM"}, {"measurement": "IC50", "setting": "[9]", "value": 18, "unit": "nM"}, {"measurement": "half-life", "setting": "[10]", "value": 1.58, "unit": "h"}, {"measurement": "bioavailability", "setting": "[11]", "value": 61.5, "unit": "%"}, {"measurement": "AUC(0-t)", "setting": "[12]", "value": 20500, "unit": "ng·h/mL"}, {"measurement": "Activity", "setting": "[13]", "value": "Non-toxic"}, {"measurement": "half-life", "setting": "[14]", "value": 0.642, "unit": "h"}]}]}
